Test results reported in article PMC8958501, “Hypothesis-Driven, Structure-Based Design in Photopharmacology: The Case of eDHFR Inhibitors” (Journal of Medicinal Chemistry, 2022).
Like-named read-outs stand apart in the source and are kept apart here.

Tests used:
[1] = Fatigue studies: repeated photoisomerization in the presence of GSH; assay type: physicochemical; conditions: eDHFR assay buffer, 10 mM GSH
Description: (§1) UV–vis absorption spectra were recorded on an Agilent 8453 UV–vis Spectrophotometer. Photochemical isomerization (photoswitching) was achieved by irradiation from the side in a fluorescence quartz cuvette (width = 1.0 cm) using a custom-built (Prizmatix/Mountain Photonics) multiwavelength fiber coupled LED system (FC6-LED-WL) including the following LEDs: 365A, 390B, 420Z, 445B, 535R, 630CA. A detailed description of the setup was published by us recently.[84] Alternatively, the samples were irradiated at 340 nm using the LOT Quantum design setup with 300 W Xe-Arc lamp, using the Thorlabs FB340-10 Bandpass filter. A Quantum Northwest TC1 temperature controller was used to maintain the temperature at 25 °C during photochemical studies. To analyze the fatigue resistance of the compounds, repeated irradiation cycles were performed using alternating wavelengths. The decrease and increase of the π–π* transition band was followed by UV–vis spectroscopy (Agilent 8453) at 25 °C while stirring. To determine the thermal lifetime for the metastable cis isomer, samples were irradiated with the custom-built setup until photostationary state (PSS) was reached. Then, the cuvettes were placed in a JASCO V750 spectrophotometer with a PTC 424S/15 temperature controller, and the recovery of the π–π* transition was followed while stirring at 25 °C (for solutions in DMSO and eDHFR assay buffer) or 37 °C (for solutions in 10 mM Tris-HCl buffer pH 7.0). The data were fitted using a first-order exponential function in OriginPro 2018. For the PSD determination by ^1H NMR spectroscopy, 0.5 mL of a 2 mM solution of the respective compound in DMSO-d6 was thermally equilibrated by briefly (∼10 s) heating the sample with a heat gun. Subsequently, the sample was irradiated in a glass NMR tube with a 365 nm hand-held lamp (Spectroline ENB-280C) or the LEDs of the custom-built setup. Detailed data are reported in the SI.

eDHFR = molecular target: T1, eDHFR (Escherichia coli, UniProt P0ABQ4); test: biochemical; conditions: for light-induced change in eDHFR inhibition (dark IC50 vs irradiated IC50): irradiation with λ1 = 365 nm;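 as to all read-outs here: purified E. coli DHFR colorimetric assay, enzyme with NADPH 3 min then inhibitor (10^-12 to 10^-5 M) 7 min, rate ΔAbs/s relative to DMSO control (1% v/v), triplicates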
T1 construct: made in house; host or cells: E. cloni EXPRESS BL21 (DE3) cells (Lucigen), pT7-SC1 plasmid
Description: A 10 mM stock solution of the inhibitor in DMSO was divided into two parts. One half was thermally adapted with a heat gun for 1 min to obtain only the trans isomer.
The compounds were tested as eDHFR inhibitors via a colorimetric assay (Sigma-Aldrich, Catalog No. CS0340). Instead of the human DHFR protein provided in the kit, the in-house purified eDHFR was used. In a 3 mL cuvette, eDHFR (∼20 ng) was incubated with NADPH (60 μM, final) for 3 min, followed by an incubation with the inhibitor (from 10^–5 to 10^–12 M, final) for an additional 7 min. […] The concentration of DMSO in the final volume was 1% v/v for all enzymatic reactions. The measurements were performed in triplicates. For the control enzymatic reactions, eDHFR was incubated with NADPH and DMSO (1% v/v, final). […] The related control enzymatic reaction was also performed under continuous irradiation with λ1 = 390 nm light. Linear regression was performed in Microsoft Excel to calculate ΔAbs/s. % eDHFR activity was calculated as the ratio between ΔAbs/s for the sample and ΔAbs/s for the control reaction. GraphPadPrism 5.0 (GraphPad Software, Inc., version 5.00) was used for the determination of the IC50 of each inhibitor. Nonlinear regression was used for data fitting.

[2] = Thermal cis-to-trans isomerization (thermal half-life of the metastable cis isomer); assay type: physicochemical; conditions: for t1/2 DMSO (25 °C): thermal cis-to-trans isomerization, 20 µM; for thermal lifetime t1/2: at 25 and 37 °C
Description: as §1

[3] = Solubility in eDHFR assay buffer; assay type: physicochemical; conditions: aqueous with cosolvent or surfactant or cyclodextrin, with 20% DMSO as an additive
E. coli CS1562 = test: Antibacterial activity assay (MIC, bacterial growth curves); assay type: cell-based, Escherichia coli; conditions: for MIC: Escherichia coli, E. coli CS1562, 24 h
Description: A culture of E. coli CS1562 was grown overnight in LB medium (10 g/L tryptone, 5 g/L yeast extract, 5 g/L NaCl) containing tetracycline (10 μg/mL) at 37 °C. The OD600 was measured, and the culture was diluted to 0.002 OD600 in LB medium. Series dilutions of the compounds were prepared in DMSO and diluted 25 times in sterile LB medium in a black sterile Eppendorf tube. […] Subsequently, the dark samples were added to the 96-well plate (100 μL, triplicates). Lastly, the LB medium containing E. coli CS1562 at 0.002 OD was added to every well (100 μL). The cells were grown overnight at 37 °C in a plate reader (Synergy H1, Biotek), and the OD600 was measured every 10 min with a 10 s shaking step before each measurement. The OD600 curves were background-corrected by subtracting the value at t = 0. […] Detailed data are reported in the SI.

[4] = IC50 Dark, dark-adapted (thermally adapted, trans isomer)
[5] = irradiated to PSS with λ1 (340 nm for 3, 365 nm for 6-15), read-out: IC50 Light
[6] = light or radiation study, after irradiation with λ1 = 365 nm, read-out: MIC Light
[7] = light or radiation study, after irradiation, read-out: MIC (µM) after irradiation
[8] = light or radiation study, before irradiation, read-out: MIC (µM) before irradiation
[9] = after irradiation, read-out: DHFR inhibition IC50 (nM) after irradiation

T1 sequence (P0ABQ4 whole entry): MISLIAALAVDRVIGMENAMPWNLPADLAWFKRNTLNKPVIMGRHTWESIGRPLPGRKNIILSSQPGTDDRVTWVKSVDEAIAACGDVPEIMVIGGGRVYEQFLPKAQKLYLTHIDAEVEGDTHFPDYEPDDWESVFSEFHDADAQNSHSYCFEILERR

Compound: Nc1ncc(-c2cccc(/N=N/c3ccccc3)c2)c(N)n1 [Compound 3, (E)-5-[3-(Phenyldiazenyl)phenyl]pyrimidine-2,4-diamine]
- fatigue / resistance to reduction upon repeated irradiation cycles [1]: no sign of fatigue
- IC50 (eDHFR; [4]): 280 nM
- IC50 (eDHFR; [5]): 710 nM
- t1/2 DMSO (25 °C) [2]: > 24 h
- melting point: 209 to 211 °C

Compound: COC(C)(C#Cc1cnc(N)nc1N)c1cccc(/N=N/c2ccccc2)c1 (stereo not drawn) [Compound 7, (E)-5-{3-Methoxy-3-[3-(phenyldiazenyl)phenyl]but-1-yn-1-yl}pyrimidine-2,4-diamine]
- solubility [3]: ≤ 5 µM
- fatigue / resistance to reduction upon repeated irradiation cycles [1]: robust photoswitching
- MIC (E. coli CS1562; [6]): 20 µM
- MIC (E. coli CS1562; [7]): 20 µM
- MIC (E. coli CS1562; [8]): 20 µM
- MIC (E. coli CS1562; dark, read-out: MIC Dark): 20 µM
- MIC / bacterial growth inhibition, same in both forms (E. coli CS1562; both before and after irradiation with λ1 = 365 nm, E. coli CS1562): 20 µM
- IC50 (eDHFR; [9]): 250 ± 140 nM
- IC50 (eDHFR; before irradiation, read-out: DHFR inhibition IC50 (nM) before irradiation): 190 ± 40 nM
- light-induced change in eDHFR inhibition (dark IC50 vs irradiated IC50) (eDHFR): not significant
- thermal lifetime t1/2 [2]: > 24 h
- t1/2 DMSO (25 °C) [2]: > 24 h
- melting point: 105 to 107 °C

Compound: COC(C)(C#Cc1cnc(N)nc1N)c1ccc(/N=N/c2ccccc2)cc1 (stereo not drawn) [Compound 6, (E)-5-{3-Methoxy-3-[4-(phenyldiazenyl)phenyl]but-1-yn-1-yl}pyrimidine-2,4-diamine]
- solubility [3]: ≤ 5 µM
- fatigue / resistance to reduction upon repeated irradiation cycles [1]: robust photoswitching
- MIC (E. coli CS1562; [6]): 20 µM
- MIC (E. coli CS1562; [7]): 20 µM
- MIC (E. coli CS1562; [8]): > 40 µM
- MIC (E. coli CS1562; dark, read-out: MIC Dark): > 40 µM
- light-induced difference in antibacterial activity (dark MIC vs irradiated MIC) (E. coli CS1562; irradiation with λ1 = 365 nm, E. coli CS1562): > 2 fold
- IC50 (eDHFR; [4]): 370 nM
- IC50 (eDHFR; [9]): 160 ± 62 nM
- IC50 (eDHFR; [5]): 160 ± 62 nM
- IC50 (eDHFR; irradiated with λ1 (1: continuous irradiation at 390 nm), read-out: IC50 Light): 160 nM
- light-induced change in eDHFR inhibition (dark IC50 vs irradiated IC50) (eDHFR): 2 fold
- thermal lifetime t1/2 [2]: > 24 h
- t1/2 DMSO (25 °C) [2]: > 24 h
- melting point: 149 to 150 °C
